Measured values: patent US11717536B2, “Treatment for periodontitis” (THE UNIVERSITY OF MELBOURNE, priority 2017, dated 2023)
“And” between values parts separate entries of the source, which are not always exact repeats. Identical values can stand only once. Marks after values point to notes of the source that are not given here.

Columns and labels:
[1] = test system: Streptococcus sanguinis (NCTC 7863); assay: Six species polymicrobial biofilm in constant-depth film fermenter, species composition: S. sanguinis; format: cell-based
Procedure: (§1) To model supragingival plaque six representative oral bacterial species, Streptococcus sanguinis (NCTC 7863), Streptococcus mutans Ingbritt, Actinomyces naeslundii (NCTC 10301), Veillonella parvula (ATCC 17745), Lactobacillus casei (NCDO 161) and Fusobacterium nucleatum (ATCC 10953) (Table 5) were cultured as a polymicrobial biofilm on a human enamel substratum in a constant-depth film fermenter (CDFF; Cardiff University, UK). The CDFF was housed in a 37° C. incubator under anaerobic conditions which were maintained by a constant flow of 5% CO2 in N2 at 1 L/h. The CDFF contained 15 removable polytetrafluoroethylene (PTFE) pans on a circular platform that was rotated at a constant speed of three rpm. The biofilms were grown on three enamel blocks (see below) in each PTFE pan using an artificial saliva medium (ASM, 2.5 g/L mucin type II (porcine, gastric, Sigma), 2.0 g/L bacteriological peptone (Oxoid), 2.0 g/L tryptone (Oxoid), 1.0 g/L yeast extract (Oxoid), 0.35 g/L NaCl, 0.2 g/L KCl, 0.2 mg/L vitamin K, 1 mg/L haemin and 0.1 g/L cysteine hydrochloride) at a constant flow rate of 30 mL/h. Prior to inoculation, the CDFF pan surfaces were conditioned for 24 h with ASM at a flow rate of 10 mL/h (McBain et al (2003) J Appl Microbiol. 94(4):655-66). In order to mimic in vivo bacterial growth conditions in the oral cavity with dietary sugar intake and to provide a high cariogenic challenge, a 1% (w/v) sucrose solution in ASM was pumped into the CDFF four times a day at four hourly intervals with a flow rate of 30 mL/h for 10 min.
(§2) Three treatments were applied to the polymicrobial biofilms: 290 ppm fluoride with 220 ppm fluoride as SnF2 and 70 ppm fluoride as NaF (referred to as SnF2), 2% CPP-ACP and 2% CPP-ACP-SnF2. These treatments were compared with the control in which the test solution was replaced with ASM. Each treatment was applied using two 10 min pulses of the test solution in ASM with a flow rate of 30 mL/h. The first pulse started 30 min prior to the first sucrose pulse of the morning and the second started 3 h 30 min after the final sucrose pulse of the day.
(§3) On day 6, 12 and 19 after inoculation four pans were removed aseptically from the CDFF and replaced with blank sterile pans. Enamel blocks from the pans were removed for bacterial enumeration and transverse microradiography.
(§4) Planktonic and loosely attached bacterial cells were firstly removed from the enamel blocks by light washing with 100 μL ASM. […]
(§5) For each timepoint, DNA was extracted separately from 8-9 enamel blocks using PowerLyzer® PowerSoil® DNA Isolation Kits (MoBio Laboratories) following the manufacturers “Vacuum Protocol” with a Precellys® bead homogeniser (Bertin Technologies). Samples were quantified using a Qubit™ dsDNA HS assay kit (Life Technologies) before being stored at −80° C. […]

[2] = test system: Fusobacterium nucleatum (ATCC 10953); assay: Six species polymicrobial biofilm in constant-depth film fermenter, species composition: F. nucleatum; format: cell-based
Procedure: as §1, §2, §3
Planktonic and loosely attached bacterial cells were firstly removed from the enamel blocks by light washing with 100 μL ASM. To harvest the biofilm cells on each block, the surface was scraped with a sterile scraper with 1 mL of ASM. The biofilm bacterial cells were sedimented by centrifugation (10,000 g, 10 min), the supernatant carefully decanted and the cell pellets stored at −80° C. until required for DNA extraction. The enamel blocks were then used for sectioning and microradiography.
For each timepoint, DNA was extracted separately from 8-9 enamel blocks using PowerLyzer® PowerSoil® DNA Isolation Kits (MoBio Laboratories) following the manufacturers “Vacuum Protocol” with a Precellys® bead homogeniser (Bertin Technologies). Samples were quantified using a Qubit™ dsDNA HS assay kit (Life Technologies) before being stored at −80° C.
The Ion Amplicon Library Preparation Fusion Method (Thermo Fisher Scientific), was adapted for amplification of the V4 region of the 16S rRNA gene. […]

[3] = test system: Lactobacillus casei (NCDO 161); assay: Six species polymicrobial biofilm in constant-depth film fermenter, species composition: L. casei; format: cell-based; details: 19 days; mean ± standard deviation; n = 5-21
Procedure: as §1, §2, §3, §4, §5

polymicrobial biofilm = assay: Biofilm ion analyses (calcium, phosphorous, tin; ICP-MS)
Procedure: To model supragingival plaque six representative oral bacterial species, Streptococcus sanguinis (NCTC 7863), Streptococcus mutans Ingbritt, Actinomyces naeslundii (NCTC 10301), Veillonella parvula (ATCC 17745), Lactobacillus casei (NCDO 161) and Fusobacterium nucleatum (ATCC 10953) (Table 5) were cultured as a polymicrobial biofilm on a human enamel substratum in a constant-depth film fermenter (CDFF; Cardiff University, UK). […] The CDFF contained 15 removable polytetrafluoroethylene (PTFE) pans on a circular platform that was rotated at a constant speed of three rpm. […] These treatments were compared with the control in which the test solution was replaced with ASM. […] The first pulse started 30 min prior to the first sucrose pulse of the morning and the second started 3 h 30 min after the final sucrose pulse of the day. Calcium, phosphorous and tin content of polymicrobial biofilm samples were determined by inductively-coupled mass spectrometry essentially as described previously [[…] et al 2005].

[4] = test system: Streptococcus mutans Ingbritt; assay: Six species polymicrobial biofilm in constant-depth film fermenter, species composition: S. mutans; format: cell-based; details: 19 days; mean ± standard deviation; n = 5-21
Procedure: as §1
(§6) Three treatments were applied to the polymicrobial biofilms: 290 ppm fluoride with 220 ppm fluoride as SnF2 and 70 ppm fluoride as NaF (referred to as SnF2), 2% CPP-ACP and 2% CPP-ACP-SnF2. […]
as §5

[5] = test system: enamel substratum of the polymicrobial biofilm caries model; assay: Enamel subsurface demineralization in the polymicrobial biofilm caries model (transverse microradiography); design: species or system human; details: for integrated mineral loss ΔZd / lesion depth LD: twice daily 10 min pulses, mean ± SD
Procedure: as §1, §2, §3
Three hundred and sixty extracted human third molars were obtained under University of Melbourne ethics approval (HREC #1237616) and sterilized by exposure to 4.1 kGy of gamma radiation. Enamel blocks were cut from the teeth with approximately 6×3×3 mm dimensions using a water-cooled diamond blade saw (Minitom, Struers) and polished using a RotoPol/RotoForce lapping instrument with 1200, 2400, 4000 grit lapping papers (Struers) and 3 and 1 μm diamond polishing pastes (Struers). The blocks were positioned in custom made CDFF pans at a depth of 100 μm and sealed in place with yellow sticky wax (Kemdent) and sterilized by exposure to 4.1 kGy of gamma radiation.
Transverse microradiography was carried out essentially as described previously [Shen et al 2011]. […] The lesion depth (μm) was determined as the distance to the point at which the mineral content reaches 95% of the sound enamel value. The integrated mineral loss (IML), represented as ΔZd, was calculated by trapezoidal integration as the area between the sound-enamel densitometric profile and that of the demineralized enamel densitometric profile in vol % min·μm.

[6] = test system: Veillonella parvula (ATCC 17745); assay: Six species polymicrobial biofilm in constant-depth film fermenter, species composition: V. parvula; format: cell-based; details: 19 days; mean ± standard deviation; n = 5-21
Procedure: as §1, §6, §5

[7] = test system: Actinomyces naeslundii (NCTC 10301); assay: Six species polymicrobial biofilm in constant-depth film fermenter, species composition: A. naeslundii; format: cell-based
Procedure: as §1, §6, §5

[8] = 19 days, mean ± standard deviation, n = 5-21

[F][Sn][F] [SnF2, stannous fluoride, reference compound]
S. sanguinis as a percentage of total bacteria in the biofilm [1, 8]: 17.47 ± 3.44^a % | change in abundance of S. sanguinis relative to the control (in words) ([1]; twice daily treatment, day 19): significantly increased | F. nucleatum as a percentage of total bacteria in the biofilm [2, 8]: 0.02 ± 0.01^cd % | change in abundance of F. nucleatum after treatment relative to the control (increase) ([2]; day 19, FIG. 5B): −2% | L. casei as a percentage of total bacteria in the biofilm [3]: 10.67 ± 6.92^cd % | increase in calcium in the biofilm relative to the control (polymicrobial biofilm; ICP-MS): two-fold | increase in phosphorous in the biofilm relative to the control (polymicrobial biofilm; ICP-MS): two-fold | peak stannous concentration in the biofilm (polymicrobial biofilm; ICP-MS): 1.0 nmol/mg biofilm wet weight | Sn accumulated in the polymicrobial biofilms, concentration (polymicrobial biofilm; during SnF2 treatment): ≤ 119 ppm | S. mutans as a percentage of total bacteria in the biofilm [4]: 59.82 ± 4.59^a % | integrated mineral loss ΔZd ([5]; Day 6): 636.7 ± 129.4 vol % min · μm | lesion depth LD ([5]; Day 6): 17.6 ± 1.2^c μm | integrated mineral loss ΔZd ([5]; Day 12): 1352.1 ± 147.3^bde vol % min · μm | lesion depth LD ([5]; Day 12): 37.1 ± 5.3^bdf μm | integrated mineral loss ΔZd ([5]; Day 19): 2096.3 ± 66.7^ae vol % min · μm | lesion depth LD ([5]; Day 19): 46.1 ± 4.7^be μm | rate of demineralization ([5]; between day 6 and day 19): 112.1 vol % min·μm/day | reduction in rate of demineralization relative to control ([5]; between day 6 and day 19, twice daily exposure): 50.2% and 50% | V. parvula as a percentage of total bacteria in the biofilm [6]: 6.50 ± 1.48^b % | A. naeslundii as a percentage of total bacteria in the biofilm [7, 8]: 5.54 ± 1.74^abc % | change in abundance of A. naeslundii relative to the control (in words) ([7]; twice daily treatment, day 19): significantly reduced
